Earlier results in patent US20220218780A1, “Composition for Improving Vascular Endothelial Function or Improving Blood Flow in Peripheral Blood Vessels” (House Wellness Foods Corporation, priority 2018, published 2022).

System: vascular endothelial function
Settings: diabetes rat models, continuous oral administration every day, 30 mg/kg and 300 mg/kg body weight

COc1cc(/C=C/C(=O)CC(=O)/C=C/c2ccc(O)c(OC)c2)ccc1O [curcumin]
reduction in vascular endothelial function associated with diabetes: improved
